These results are taken from patent publication US20220363662A1, “COMPOUNDS AS LXR AGONISTS” (Integral Biosciences Privated Limited, priority 2021, published 2022).

This test deals with T1, LXR beta (Homo sapiens, UniProt P55055).
T1 construct: 5 μL of 4×LXR beta-LBD was added to each well (final concentration 5 nM); purchased Thermofisher PV4658
T1 sequence (P55055 222-460 limits assumed): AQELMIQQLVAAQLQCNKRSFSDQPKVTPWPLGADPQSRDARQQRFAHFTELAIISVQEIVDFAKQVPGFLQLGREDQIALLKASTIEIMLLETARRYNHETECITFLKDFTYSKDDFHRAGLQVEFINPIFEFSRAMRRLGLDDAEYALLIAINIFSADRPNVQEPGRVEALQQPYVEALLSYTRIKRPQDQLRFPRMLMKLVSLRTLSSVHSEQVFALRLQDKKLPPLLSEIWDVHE
Description: LXR beta agonist assay (Lanthascreen TR-FRET). Format: biochemical. The conditions noted are these: LXR beta-LBD 5 nM, read-out: LXR-β EC50. As for the experimental part: EC50 values of compounds against LXR beta were determined at Integral BioSciences (India) using Lanthascreen TR-FRET (Thermofisher, Cat #PV4658). Assay was performed in a 20 μL final volume in a Black 384-well plate (Corning, Cat #4511). Dose response curve for the compounds were prepared in duplicates with starting concentration at 30 μM and a three-fold titration was performed. The reaction buffer consisted of TR-FRET Coregulator Buffer G. To the compound dilution, 5 μL of 4×LXR beta-LBD was added to each well (final concentration 5 nM). An equal volume (5 μL) containing 4×Fl-D22/Tb-anti GST antibody (final concentration 100 nM/10 nM) was added to initiate the enzyme reaction and the reaction was incubated for 60 min at 22° C. after which the plates were read using BioTek Plate reader for TR-FRET every hour up to 4 hours.
Analysis was done using the standard curve by non-linear regression, variable slope inhibitor curve fits (Graph-Pad Prism) and EC50's of compounds were determined wherever possible.

A value given as a limit tells only on which side of the number the result lay.

Take `O=C(NCC(F)F)c1ccc(NC2CN(C3CCN(C(=O)C(O)(c4cccc(Cl)c4)C(F)(F)F)CC3)C2)cc1Cl` (stereo not drawn) [Compound 1.130, 2-chloro-4-((1-(1-(2-(3-chlorophenyl)-3,3,3-trifluoro-2-hydroxypropanoyl)piperidin-4-yl)azetidin-3-yl)amino)-N-(2,2-difluoroethyl)benzamide]: the EC50 turned out to be 1.57 µM.

Take `O=C(c1ccc(NC2CN(C3CCN(C(=O)C(O)(c4cccc(Cl)c4)C(F)(F)F)CC3)C2)cc1Cl)N1CCC(F)(F)CC1` (stereo not drawn) [Compound 1.133, 1-(4-(3-((3-chloro-4-(4,4-difluoropiperidine-1-carbonyl)phenyl)amino)azetidin-1-yl)piperidin-1-yl)-2-(3-chlorophenyl)-3,3,3-trifluoro-2-hydroxypropan-1-one]: the EC50 was determined as 0.995 µM.

For the molecule `CN(C)C(=O)c1ccc(NC2CN(C3CCN(C(=O)[C@@](O)(c4ccc(F)cc4)C(F)(F)F)CC3)C2)cc1Cl` (single isomer, unassigned) [Compound 1.116], the EC50 was 9.85 µM.

Turning to `COCCCN(C)C(=O)c1ccc(NC2CN(C3CCN(C(=O)[C@](O)(c4ccccc4)C(F)(F)F)CC3)C2)cc1Cl` [Compound 1.124, (R)-2-chloro-N-(3-methoxypropyl)-N-methyl-4-(1-(1-(3,3,3-trifluoro-2-hydroxy-2-phenylpropanoyl)piperidin-4-yl)azetidin-3-ylamino)benzamide], the EC50 is 1.57 µM.

Consider `CCN(CC)C(=O)c1ccc(NC2CN(C3CCN(C(=O)[C@@](O)(c4ccccc4)C(F)(F)F)CC3)C2)cc1Cl` (single isomer, unassigned) [Compound 1.96], for which the EC50 was determined as 4.57 µM.

As to `CN(C)C(=O)c1ccc(-c2nnc(C3=CCN(C(=O)C4CCC(F)(F)CC4)CC3)s2)cc1Cl` [Compound 1.60, 2-chloro-4-(5-(1-(4,4-difluorocyclohexanecarbonyl)-1,2,3,6-tetrahydropyridin-4-yl)-1,3,4-thiadiazol-2-yl)-N,N-dimethylbenzamide], the concentration for a half-maximal effect (EC50) was 1.51 µM.

Regarding `CN(C)C(=O)c1ccc(-c2nnc(C3=CCN(C(=O)C(O)(c4ccccc4)C(F)(F)F)CC3)s2)cc1Cl` (stereo not drawn) [Compound 1.68, 2-chloro-N,N-dimethyl-4-(5-(1-(3,3,3-trifluoro-2-hydroxy-2-phenylpropanoyl)-1,2,3,6-tetrahydropyridin-4-yl)-1,3,4-thiadiazol-2-yl)benzamide], the EC50 is 4.58 µM.

For the molecule `O=C(NCC(F)F)c1ccc(NC2CN(C3CCN(C(=O)[C@](O)(c4ccccc4)C(F)(F)F)CC3)C2)cc1Cl` (single isomer, unassigned) [Compound 1.106], the concentration for a half-maximal effect (EC50) is 2.71 µM.

In the case of `O=C(c1ccc(NC2CN(C3CCN(C(=O)C(O)(c4ccccc4)C(F)(F)F)CC3)C2)cc1Cl)N1CCCCC1` (stereo not drawn) [Compound 1.89, 1-(4-(3-(3-chloro-4-(piperidine-1-carbonyl)phenylamino)azetidin-1-yl)piperidin-1-yl)-3,3,3-trifluoro-2-hydroxy-2-phenylpropan-1-one], the 50% effective concentration (EC50) is over 30 µM.

Take `O=C(NCC(F)F)c1ccc(NC2CN(C3CCN(C(=O)C(O)(c4ccccc4)C(F)(F)F)CC3)C2)cc1Cl` (stereo not drawn) [Compound 1.98, 2-chloro-N-(2,2-difluoroethyl)-4-((1-(1-(3,3,3-trifluoro-2-hydroxy-2-phenylpropanoyl)piperidin-4-yl)azetidin-3-yl)amino)benzamide]: the EC50 came out at 9.8 µM.

For `CN(C)C(=O)c1c(F)cc(N2CCN(C3CC4(C3)CN(C(=O)C(O)(c3ccccc3)C(F)(F)F)C4)CC2)cc1F` (stereo not drawn) [Compound 1.126, 2,6-difluoro-N,N-dimethyl-4-(4-(2-(3,3,3-trifluoro-2-hydroxy-2-phenylpropanoyl)-2-azaspiro[3.3]heptan-6-yl)piperazin-1-yl)benzamide], the EC50 was 1.58 µM.

With `CN(C)C(=O)c1ccc(-c2nnc(N3CCN(S(=O)(=O)c4ccccc4Cl)CC3)s2)cc1F` [Compound 1.70, 4-(5-(4-(2-chlorophenylsulfonyl)piperazin-1-yl)-1,3,4-thiadiazol-2-yl)-2-fluoro-N,N-dimethylbenzamide], the EC50 was found to be 9.77 µM.

For `CN(C)C(=O)c1ccc(NC2CN(C3CCN(C(=O)[C@@](O)(c4cccc(Cl)c4)C(F)(F)F)CC3)C2)cc1Cl` (single isomer, unassigned) [Compound 1.118], the EC50 is 0.241 µM.

For `O=C(c1ccc(NC2CN(C3CCN(C(=O)[C@](O)(c4ccccc4)C(F)(F)F)CC3)C2)cc1Cl)N1CCCCC1` (single isomer, unassigned) [Compound 1.108], the EC50 was 1.57 µM.

For `CC1CN(S(=O)(=O)c2ccccc2Cl)CCN1c1nnc(-c2ccc(C(=O)N(C)C)c(F)c2)s1` (stereo not drawn) [Compound 1.82, 4-(5-(4-(2-chlorophenylsulfonyl)-2-methylpiperazin-1-yl)-1,3,4-thiadiazol-2-yl)-2-fluoro-N,N-dimethylbenzamide], the EC50 came out at 9.02 µM.

For `CN(C)C(=O)c1ccc(NC2CN(C3CCN(C(=O)C(O)(C4CCCCC4)C(F)(F)F)CC3)C2)cc1Cl` (stereo not drawn) [Compound 1.101, 2-chloro-4-((1-(1-(2-cyclohexyl-3,3,3-trifluoro-2-hydroxypropanoyl)piperidin-4-yl)azetidin-3-yl)amino)-N,N-dimethylbenzamide], the EC50 amounted to 4.85 µM.

As to `COc1cccc(C2(C(=O)N3CCC(N4CC(Nc5ccc(C(=O)N(C)C)c(Cl)c5)C4)CC3)CCCC2)c1` [Compound 1.67, 2-chloro-4-(1-(1-(1-(3-methoxyphenyl)cyclopentanecarbonyl)piperidin-4-yl)azetidin-3-ylamino)-N,N-dimethylbenzamide], the EC50 turned out to be 0.995 µM.

`CN(C)C(=O)c1ccc(NC2CN(C3CCN(C(=O)[C@](O)(c4ccccc4)C(F)(F)F)CC3)C2)cc1Cl` (single isomer, unassigned) [Compound 1.9]: the EC50 is over 30 µM.

`CN(C)C(=O)c1ccc(NC2CN(C3CCN(S(=O)(=O)c4ccccc4C#N)CC3)C2)cc1Cl` [Compound 1.13, 2-chloro-4-(1-(1-(2-cyanophenylsulfonyl)piperidin-4-yl)azetidin-3-ylamino)-N,N-dimethylbenzamide]: the EC50 is 4.43 µM.

Regarding `CN(C)C(=O)c1ccc(NC2CN(C3CCN(C(=O)C(O)(c4ccccc4)C(F)(F)F)CC3)C2)cc1F` (stereo not drawn) [Compound 1.85, 2-fluoro-N,N-dimethyl-4-((1-(1-(3,3,3-trifluoro-2-hydroxy-2-phenylpropanoyl)piperidin-4-yl)azetidin-3-yl)amino)benzamide], the EC50 is over 30 µM.

For the molecule `CC1CN(C(=O)c2ccc(NC3CN(C4CCN(C(=O)C(O)(c5ccccc5)C(F)(F)F)CC4)C3)cc2Cl)C1` (stereo not drawn) [Compound 1.94, 1-(4-(3-((3-chloro-4-(3-methylazetidine-1-carbonyl)phenyl)amino)azetidin-1-yl)piperidin-1-yl)-3,3,3-trifluoro-2-hydroxy-2-phenylpropan-1-one], the EC50 was determined as 6.79 µM.

For the molecule `CN(C)C(=O)c1ccc(C2=CCN(C3CC4(C3)CN(C(=O)C(O)(c3ccccc3)C(F)(F)F)C4)CC2)cc1Cl` (stereo not drawn) [Compound 1.127, 2-chloro-N,N-dimethyl-4-(1-(2-(3,3,3-trifluoro-2-hydroxy-2-phenylpropanoyl)-2-azaspiro[3.3]heptan-6-yl)-1,2,3,6-tetrahydropyridin-4-yl)benzamide], the EC50 was 3.95 µM.

For the molecule `CN(C)C(=O)c1c(Cl)cc(NC2CN(C3CCN(C(=O)[C@@](O)(c4ccccc4)C(F)(F)F)CC3)C2)cc1Cl` [Compound 1.123, (S)-2,6-dichloro-N,N-dimethyl-4-(1-(1-(3,3,3-trifluoro-2-hydroxy-2-phenylpropanoyl)piperidin-4-yl)azetidin-3-ylamino)benzamide], the EC50 is over 27 µM.

As to `O=C(c1ccc(NC2CN(C3CCN(C(=O)C(O)(c4ccccc4)C(F)(F)F)CC3)C2)cc1Cl)N1CCCC1` (stereo not drawn) [Compound 1.88, 1-(4-(3-(3-chloro-4-(pyrrolidine-1-carbonyl)phenylamino)azetidin-1-yl)piperidin-1-yl)-3,3,3-trifluoro-2-hydroxy-2-phenylpropan-1-one], the EC50 was over 30 µM.

For `CN(C)C(=O)c1ccc(NC2CN(C3CCN(C(=O)C45CC6CC(CC(C6)C4)C5)CC3)C2)cc1Cl` [Compound 1.66, 4-({1-[1-(adamantane-1-carbonyl)piperidin-4-yl]azetidin-3-yl}amino)-2-chloro-N,N-dimethylbenzamide], the EC50 is over 20.4 µM.

On to `CC(C)(C(=O)N1CCC(C2CCN(c3cc(Cl)c4c(=O)[nH]ccc4c3)CC2)CC1)c1ccccc1` [Compound 1.24, 8-chloro-6-(1′-(2-methyl-2-phenylpropanoyl)-4,4′-bipiperidin-1-yl)isoquinolin-1(2H)-one], for which the EC50 amounted to 2.48 µM.

With `COCCCN(C)C(=O)c1ccc(N2CCN(C3CC4(C3)CN(C(=O)C(O)(c3ccccc3)C(F)(F)F)C4)CC2)cc1Cl` (stereo not drawn) [Compound 1.119, 2-chloro-N-(3-methoxypropyl)-N-methyl-4-(4-(2-(3,3,3-trifluoro-2-hydroxy-2-phenylpropanoyl)-2-azaspiro[3.3]heptan-6-yl)piperazin-1-yl)benzamide], the EC50 stood at 2.85 µM.
